Legend:
DYRK3 = DYRK3 (Homo sapiens, UniProt O43781); test: Z′-LYTE kinase inhibition assay
CAMK2α = CAMK2α (Homo sapiens, UniProt Q9UQM7); test: Z′-LYTE kinase inhibition assay
CHK1 = CHK1 (Homo sapiens, UniProt O14757); test: Z′-LYTE kinase inhibition assay
PDK1 = PDK1 (Homo sapiens, UniProt O15530); test: Z′-LYTE kinase inhibition assay
JNK1 = JNK1 (Homo sapiens, UniProt P45983); test: Z′-LYTE kinase inhibition assay
SRC = SRC (Homo sapiens, UniProt P12931); test: Z′-LYTE kinase inhibition assay
HUVECs [1] = test: VEGF-induced HUVECs proliferation; type: cell-based; conditions: Homo sapiens, HUVEC, 72 h, read-out: IC50 HUVECs
[2] = Pharmacokinetic study in beagles; type: in vivo; conditions: both, beagle, dog, plasma
JAK2 = JAK2 (Homo sapiens, UniProt O60674); test: Z′-LYTE kinase inhibition assay
[3] = Pharmacokinetic study in rats; type: in vivo; conditions: both, Sprague-Dawley, rat, plasma
HUVECs [4] = test: HUVEC tube formation assay; type: cell-based, human; conditions: induced by 50 ng/mL hVEGF-165; 0.5 and 5.0 μmol/L; vs. hVEGF-165 control, P < 0.01
MAP4K4 = MAP4K4 (Homo sapiens, UniProt O95819); test: Z′-LYTE kinase inhibition assay
[5] = system: A549 lung cancer xenograft; test: A549 lung cancer subcutaneous xenograft model; type: in vivo, Balb/c nude mice; conditions: for T/C / TGI: Day 21; for Tumor volume at Day 21 / area of CD31 (tumor micro-vessel density, IHC): mean ± SEM; for area of CD31 (tumor micro-vessel density, IHC): n = 3, control 3.38 ± 0.49
[6] = system: NCI-H520 lung cancer xenograft; test: NCI-H520 lung cancer subcutaneous xenograft model; type: in vivo, Balb/c nude mice; conditions: for T/C / TGI: Day 21; for Tumor volume at Day 21 / area of CD31 (tumor micro-vessel density, IHC): mean ± SEM; for area of CD31 (tumor micro-vessel density, IHC): n = 3, control 4.96 ± 0.62
CDK2 = CDK2 (Homo sapiens, UniProt P24941); test: Z′-LYTE kinase inhibition assay
p38α = p38α (Homo sapiens, UniProt Q16539); test: Z′-LYTE kinase inhibition assay
HUVECs [7] = conditions: 5.0 μmol/L (P < 0.05), 50.0 μmol/L (P < 0.001) vs. hVEGF-165 treated control
[8] = system: CT26 colon adenocarcinoma cells; test: Tumor xenograft model in transgenic zebrafish; type: in vivo; conditions: 0.5 and 2.0 μmol/L in fish water, 7 days
[9] = system: phosphorylation of PDGFRβ and ERK; test: Western blot, PDGF/PDGFRβ/ERK signalling in HBVPs; type: cell-based, human; conditions: 0.5 and 5.0 μmol/L; induced by 50 ng/mL PDGF-BB in HBVPs
MAPKAPK2 = MAPKAPK2 (Homo sapiens, UniProt P49137); test: Z′-LYTE kinase inhibition assay
CK1α = CK1α (Homo sapiens, UniProt P48729); test: Z′-LYTE kinase inhibition assay
GSK3β = GSK3β (Homo sapiens, UniProt P49841); test: Z′-LYTE kinase inhibition assay
VEGFR3 = VEGFR3 (Homo sapiens, UniProt P35916); test: Z′-LYTE kinase inhibition assay
Sequence of VEGFR3 (P35916 25-1363): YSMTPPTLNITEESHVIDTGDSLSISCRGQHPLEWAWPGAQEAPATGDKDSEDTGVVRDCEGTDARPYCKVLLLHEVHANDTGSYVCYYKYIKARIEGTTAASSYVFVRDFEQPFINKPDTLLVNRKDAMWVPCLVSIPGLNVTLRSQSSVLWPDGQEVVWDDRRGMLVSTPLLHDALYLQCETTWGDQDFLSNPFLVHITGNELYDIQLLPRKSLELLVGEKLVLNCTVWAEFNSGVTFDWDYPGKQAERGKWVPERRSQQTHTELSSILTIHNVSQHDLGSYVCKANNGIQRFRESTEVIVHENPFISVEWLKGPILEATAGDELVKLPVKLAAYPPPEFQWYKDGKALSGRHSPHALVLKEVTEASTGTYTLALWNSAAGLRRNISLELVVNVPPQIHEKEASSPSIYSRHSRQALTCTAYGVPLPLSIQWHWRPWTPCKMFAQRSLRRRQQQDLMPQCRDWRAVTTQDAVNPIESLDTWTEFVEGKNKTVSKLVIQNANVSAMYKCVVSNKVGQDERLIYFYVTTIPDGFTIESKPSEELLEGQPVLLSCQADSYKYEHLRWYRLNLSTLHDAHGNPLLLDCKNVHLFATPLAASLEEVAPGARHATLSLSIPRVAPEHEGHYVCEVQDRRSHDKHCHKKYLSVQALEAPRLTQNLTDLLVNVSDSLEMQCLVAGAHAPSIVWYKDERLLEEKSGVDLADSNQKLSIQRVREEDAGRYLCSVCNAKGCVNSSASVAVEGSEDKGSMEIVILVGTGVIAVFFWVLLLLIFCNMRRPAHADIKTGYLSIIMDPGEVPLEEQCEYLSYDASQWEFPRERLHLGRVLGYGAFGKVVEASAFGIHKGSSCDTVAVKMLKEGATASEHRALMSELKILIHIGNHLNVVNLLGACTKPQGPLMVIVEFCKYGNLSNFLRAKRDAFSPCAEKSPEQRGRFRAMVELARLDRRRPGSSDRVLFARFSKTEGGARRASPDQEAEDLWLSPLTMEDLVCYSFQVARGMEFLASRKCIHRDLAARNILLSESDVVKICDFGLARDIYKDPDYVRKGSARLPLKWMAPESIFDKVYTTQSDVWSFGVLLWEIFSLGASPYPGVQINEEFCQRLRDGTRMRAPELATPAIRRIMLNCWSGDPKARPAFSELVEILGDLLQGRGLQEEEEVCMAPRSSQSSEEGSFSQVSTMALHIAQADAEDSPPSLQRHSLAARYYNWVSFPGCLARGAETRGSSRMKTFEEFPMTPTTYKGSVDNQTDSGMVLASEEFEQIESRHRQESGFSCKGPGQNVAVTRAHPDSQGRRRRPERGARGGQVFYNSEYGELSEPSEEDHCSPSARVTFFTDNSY

Sequence of JNK1 (P45983 whole entry): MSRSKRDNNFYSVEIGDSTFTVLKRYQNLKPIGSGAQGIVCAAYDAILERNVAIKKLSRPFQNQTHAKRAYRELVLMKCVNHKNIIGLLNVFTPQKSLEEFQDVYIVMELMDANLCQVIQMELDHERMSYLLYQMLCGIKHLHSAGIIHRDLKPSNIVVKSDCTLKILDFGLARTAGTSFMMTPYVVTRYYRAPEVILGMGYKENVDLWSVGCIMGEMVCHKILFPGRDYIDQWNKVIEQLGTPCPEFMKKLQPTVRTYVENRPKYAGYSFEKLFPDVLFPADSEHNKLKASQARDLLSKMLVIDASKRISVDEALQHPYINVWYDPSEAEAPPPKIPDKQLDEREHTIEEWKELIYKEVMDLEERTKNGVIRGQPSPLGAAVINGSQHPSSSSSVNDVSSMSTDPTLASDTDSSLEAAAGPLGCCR
Sequence of p38α (Q16539 whole entry): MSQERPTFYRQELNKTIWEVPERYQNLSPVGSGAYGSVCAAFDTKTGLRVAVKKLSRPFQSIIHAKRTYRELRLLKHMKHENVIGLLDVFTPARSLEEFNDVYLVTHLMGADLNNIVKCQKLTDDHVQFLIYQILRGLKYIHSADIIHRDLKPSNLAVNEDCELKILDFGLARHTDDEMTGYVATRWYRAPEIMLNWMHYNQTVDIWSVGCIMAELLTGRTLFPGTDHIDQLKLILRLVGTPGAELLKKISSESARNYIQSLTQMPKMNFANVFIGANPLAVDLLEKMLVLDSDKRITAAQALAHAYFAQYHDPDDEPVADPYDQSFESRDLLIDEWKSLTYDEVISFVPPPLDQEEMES
Sequence of CK1α (P48729 whole entry): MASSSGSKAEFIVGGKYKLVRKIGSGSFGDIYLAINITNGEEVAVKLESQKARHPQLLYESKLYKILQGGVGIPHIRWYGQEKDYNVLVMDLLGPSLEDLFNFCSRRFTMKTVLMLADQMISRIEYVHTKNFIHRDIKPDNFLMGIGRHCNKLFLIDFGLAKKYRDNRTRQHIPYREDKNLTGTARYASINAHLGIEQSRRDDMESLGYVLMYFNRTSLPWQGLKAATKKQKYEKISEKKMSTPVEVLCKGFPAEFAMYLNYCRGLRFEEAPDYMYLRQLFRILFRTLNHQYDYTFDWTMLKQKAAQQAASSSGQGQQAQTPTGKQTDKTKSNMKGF
Sequence of JAK2 (O60674 whole entry): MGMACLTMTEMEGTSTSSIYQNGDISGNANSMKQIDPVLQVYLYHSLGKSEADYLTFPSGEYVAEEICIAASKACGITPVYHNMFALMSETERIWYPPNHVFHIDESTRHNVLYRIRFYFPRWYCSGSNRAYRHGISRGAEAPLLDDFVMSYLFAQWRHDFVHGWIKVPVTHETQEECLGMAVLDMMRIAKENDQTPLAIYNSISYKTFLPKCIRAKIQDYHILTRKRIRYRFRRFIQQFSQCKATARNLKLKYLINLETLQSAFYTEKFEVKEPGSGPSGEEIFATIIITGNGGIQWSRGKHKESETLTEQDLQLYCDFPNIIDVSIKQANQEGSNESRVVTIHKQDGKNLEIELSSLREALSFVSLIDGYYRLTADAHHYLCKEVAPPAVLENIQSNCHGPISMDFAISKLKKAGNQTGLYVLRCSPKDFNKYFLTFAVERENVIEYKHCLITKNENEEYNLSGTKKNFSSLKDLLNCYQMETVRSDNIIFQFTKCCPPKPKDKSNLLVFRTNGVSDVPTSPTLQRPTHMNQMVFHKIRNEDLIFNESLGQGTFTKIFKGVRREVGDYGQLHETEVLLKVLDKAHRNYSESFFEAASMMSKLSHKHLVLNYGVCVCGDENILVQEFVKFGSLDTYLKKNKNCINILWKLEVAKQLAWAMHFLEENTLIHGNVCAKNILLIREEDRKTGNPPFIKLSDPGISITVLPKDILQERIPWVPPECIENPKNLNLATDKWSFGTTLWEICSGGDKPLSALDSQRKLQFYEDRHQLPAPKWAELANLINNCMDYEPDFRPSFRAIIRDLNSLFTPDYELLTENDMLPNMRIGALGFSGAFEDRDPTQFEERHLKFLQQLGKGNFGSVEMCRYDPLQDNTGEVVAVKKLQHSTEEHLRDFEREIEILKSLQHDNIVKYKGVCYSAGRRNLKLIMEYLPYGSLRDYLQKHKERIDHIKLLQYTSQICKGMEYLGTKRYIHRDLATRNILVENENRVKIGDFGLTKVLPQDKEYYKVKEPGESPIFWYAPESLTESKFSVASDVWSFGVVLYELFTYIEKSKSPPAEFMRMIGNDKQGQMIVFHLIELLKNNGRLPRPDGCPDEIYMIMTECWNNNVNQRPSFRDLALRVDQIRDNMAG
Sequence of CAMK2α (Q9UQM7 whole entry): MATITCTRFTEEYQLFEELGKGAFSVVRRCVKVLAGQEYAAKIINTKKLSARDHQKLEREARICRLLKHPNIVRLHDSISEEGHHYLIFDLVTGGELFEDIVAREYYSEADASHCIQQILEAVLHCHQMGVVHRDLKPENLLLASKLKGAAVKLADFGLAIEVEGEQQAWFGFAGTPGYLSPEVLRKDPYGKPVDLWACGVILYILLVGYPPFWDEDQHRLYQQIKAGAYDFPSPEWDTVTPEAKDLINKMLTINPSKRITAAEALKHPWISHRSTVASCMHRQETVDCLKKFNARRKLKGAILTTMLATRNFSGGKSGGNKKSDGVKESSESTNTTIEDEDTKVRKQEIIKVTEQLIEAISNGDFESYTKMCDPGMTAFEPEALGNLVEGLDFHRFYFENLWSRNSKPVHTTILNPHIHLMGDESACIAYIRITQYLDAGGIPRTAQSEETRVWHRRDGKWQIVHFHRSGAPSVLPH
Sequence of SRC (P12931 whole entry): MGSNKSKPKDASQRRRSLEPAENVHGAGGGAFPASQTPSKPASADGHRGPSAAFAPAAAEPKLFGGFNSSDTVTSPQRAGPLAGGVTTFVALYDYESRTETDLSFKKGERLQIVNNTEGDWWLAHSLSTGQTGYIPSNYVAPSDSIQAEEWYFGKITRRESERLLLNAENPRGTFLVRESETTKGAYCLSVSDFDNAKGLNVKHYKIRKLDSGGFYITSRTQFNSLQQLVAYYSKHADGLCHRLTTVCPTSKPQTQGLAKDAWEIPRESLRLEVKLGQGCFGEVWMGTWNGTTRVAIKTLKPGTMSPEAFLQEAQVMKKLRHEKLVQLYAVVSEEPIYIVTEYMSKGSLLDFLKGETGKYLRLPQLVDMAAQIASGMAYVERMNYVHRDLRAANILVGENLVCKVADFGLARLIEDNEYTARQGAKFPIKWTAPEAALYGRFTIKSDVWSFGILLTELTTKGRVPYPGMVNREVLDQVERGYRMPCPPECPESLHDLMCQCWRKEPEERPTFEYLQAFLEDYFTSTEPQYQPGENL
Sequence of GSK3β (P49841 whole entry): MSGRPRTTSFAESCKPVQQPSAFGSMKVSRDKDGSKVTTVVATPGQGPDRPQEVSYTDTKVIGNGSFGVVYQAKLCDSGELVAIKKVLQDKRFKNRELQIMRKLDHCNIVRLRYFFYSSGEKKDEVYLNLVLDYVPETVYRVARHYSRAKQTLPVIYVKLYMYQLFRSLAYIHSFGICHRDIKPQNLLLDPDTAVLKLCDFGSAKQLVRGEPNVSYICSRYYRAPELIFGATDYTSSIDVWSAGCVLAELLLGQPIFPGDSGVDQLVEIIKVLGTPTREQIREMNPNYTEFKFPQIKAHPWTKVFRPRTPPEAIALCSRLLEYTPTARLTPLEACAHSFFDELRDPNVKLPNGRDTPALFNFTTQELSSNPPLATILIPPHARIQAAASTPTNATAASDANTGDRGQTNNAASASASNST

Q: Which IC50 (DYRK3) does the source give for `COc1cc2nccc(Oc3ccc(NC(=S)NC4CC4)c(Cl)c3F)c2cc1C(N)=O` [WXFL-152, 4-(3-Chloro-4-(3-cyclopropylthioureido)-2-fluorophenoxy)-7-methoxyquinoline-6-carboxamide] here?
A: > 10 µM

Q: What about the IC50 (CAMK2α) of the same compound?
A: > 10 µM

Q: What about the IC50 (CHK1) of the same compound?
A: > 10 µM

Q: And the IC50 (PDK1)?
A: > 10 µM

Q: And the IC50 (JNK1)?
A: > 10 µM

Q: What about the IC50 (SRC) of the same compound?
A: 2.65 µM

Q: And the IC50 (HUVECs [1])?
A: 0.071 µM

Q: What about the AUC(0-inf) ([2]; iv, 2 mg/kg) of the same compound?
A: 5.13 ± 0.9 µM·h

Q: What about the AUC(0-t) ([2]; iv, 2 mg/kg) of the same compound?
A: 5.1 ± 0.9 µM·h

Q: And the Cmax ([2]; iv, 2 mg/kg)?
A: 4.36 ± 0.96 µM

Q: And the Vd ([2]; iv, 2 mg/kg)?
A: 1.45 ± 0.33 L/kg

Q: What about the clearance ([2]; iv, 2 mg/kg) of the same compound?
A: 14.5 ± 2.74 mL/min/kg

Q: What about the half-life ([2]; iv, 2 mg/kg) of the same compound?
A: 4.91 ± 2.18 h

Q: And the AUC(0-inf) ([2]; po, 10 mg/kg)?
A: 20.2 ± 20.2 µM·h

Q: And the AUC(0-t) ([2]; po, 10 mg/kg)?
A: 19.6 ± 20.2 µM·h

Q: And the Cmax ([2]; po, 10 mg/kg)?
A: 6.28 ± 6.57 µM

Q: And the Tmax ([2]; po, 10 mg/kg)?
A: 1.25 ± 0.612 h

Q: And the bioavailability ([2]; po, 10 mg/kg)?
A: 76.9%

Q: What about the half-life ([2]; po, 10 mg/kg) of the same compound?
A: 5.77 ± 2.17 h

Q: What about the AUC(0-inf) ([2]; po, 30 mg/kg) of the same compound?
A: 51.8 ± 62.3 µM·h

Q: And the AUC(0-t) ([2]; po, 30 mg/kg)?
A: 50 ± 58.8 µM·h

Q: And the Cmax ([2]; po, 30 mg/kg)?
A: 16.2 ± 16.5 µM

Q: And the Tmax ([2]; po, 30 mg/kg)?
A: 0.917 ± 0.585 h

Q: And the bioavailability ([2]; po, 30 mg/kg)?
A: 65.4%

Q: What about the half-life ([2]; po, 30 mg/kg) of the same compound?
A: 5.25 ± 1.03 h

Q: What about the AUC(0-inf) ([2]; po, 30 mg/kg/day) of the same compound?
A: 37.9 ± 31.9 µM·h

Q: What about the AUC(0-t) ([2]; po, 30 mg/kg/day) of the same compound?
A: 23.7 ± 16.1 µM·h

Q: And the Cmax at 7 days ([2]; po, 30 mg/kg/day)?
A: 6.97 ± 5.26 µM

Q: And the Tmax at 7 days ([2]; po, 30 mg/kg/day)?
A: 1.08 ± 0.736 h

Q: And the half-life ([2]; po, 30 mg/kg/day)?
A: 12.3 ± 12.6 h

Q: And the AUC(0-inf) ([2]; po, 100 mg/kg)?
A: 230 ± 51.5 µM·h

Q: What about the AUC(0-t) ([2]; po, 100 mg/kg) of the same compound?
A: 199 ± 90.5 µM·h

Q: What about the Cmax ([2]; po, 100 mg/kg) of the same compound?
A: 47.8 ± 20.8 µM

Q: What about the Tmax ([2]; po, 100 mg/kg) of the same compound?
A: 2.33 ± 0.816 h

Q: What about the bioavailability ([2]; po, 100 mg/kg) of the same compound?
A: 78%

Q: And the half-life ([2]; po, 100 mg/kg)?
A: 2.99 ± 0.7 h

Q: And the IC50 (JAK2)?
A: > 10 µM

Q: What about the AUC(0-inf) ([3]; iv, 3 mg/kg) of the same compound?
A: 35.2 ± 8.3 µM·h

Q: What about the AUC(0-t) ([3]; iv, 3 mg/kg) of the same compound?
A: 35 ± 8.2 µM·h

Q: And the Cmax ([3]; iv, 3 mg/kg)?
A: 40.4 ± 3 µM

Q: And the Vd ([3]; iv, 3 mg/kg)?
A: 0.26 ± 0.05 L/kg

Q: And the clearance ([3]; iv, 3 mg/kg)?
A: 3.24 ± 0.81 mL/min/kg

Q: And the half-life ([3]; iv, 3 mg/kg)?
A: 1.18 ± 0.18 h

Q: And the AUC(0-inf) ([3]; po, 15 mg/kg)?
A: 77.7 ± 39.6 µM·h

Q: And the AUC(0-t) ([3]; po, 15 mg/kg)?
A: 74.6 ± 36.3 µM·h

Q: What about the Cmax ([3]; po, 15 mg/kg) of the same compound?
A: 26 ± 13.3 µM

Q: What about the Tmax ([3]; po, 15 mg/kg) of the same compound?
A: 0.58 ± 0.2 h

Q: What about the bioavailability ([3]; po, 15 mg/kg) of the same compound?
A: 42%

Q: And the half-life ([3]; po, 15 mg/kg)?
A: 2.21 ± 0.39 h

Q: What about the AUC(0-inf) ([3]; po, 50 mg/kg) of the same compound?
A: 110 ± 84.9 µM·h

Q: And the AUC(0-t) ([3]; po, 50 mg/kg)?
A: 110 ± 84.9 µM·h

Q: What about the Cmax ([3]; po, 50 mg/kg) of the same compound?
A: 32.3 ± 11.3 µM

Q: What about the Tmax ([3]; po, 50 mg/kg) of the same compound?
A: 0.54 ± 0.25 h

Q: What about the bioavailability ([3]; po, 50 mg/kg) of the same compound?
A: 18.7%

Q: And the half-life ([3]; po, 50 mg/kg)?
A: 2 ± 0.55 h

Q: What about the AUC(0-inf) ([3]; po, 50 mg/kg/day) of the same compound?
A: 151 ± 63.5 µM·h

Q: What about the AUC(0-t) ([3]; po, 50 mg/kg/day) of the same compound?
A: 160 ± 60.3 µM·h

Q: And the Cmax at 7 days ([3]; po, 50 mg/kg/day)?
A: 46.5 ± 13.9 µM

Q: What about the Tmax at 7 days ([3]; po, 50 mg/kg/day) of the same compound?
A: 1.42 ± 0.67 h

Q: And the half-life at 7 days ([3]; po, 50 mg/kg/day)?
A: 2.17 ± 0.55 h

Q: And the AUC(0-inf) ([3]; po, 150 mg/kg)?
A: 233 ± 158 µM·h

Q: What about the AUC(0-t) ([3]; po, 150 mg/kg) of the same compound?
A: 232 ± 158 µM·h

Q: And the Cmax ([3]; po, 150 mg/kg)?
A: 48.7 ± 9.5 µM

Q: And the Tmax ([3]; po, 150 mg/kg)?
A: 1.58 ± 2.26 h

Q: And the bioavailability ([3]; po, 150 mg/kg)?
A: 13%

Q: And the half-life ([3]; po, 150 mg/kg)?
A: 2.54 ± 0.8 h

Q: What about the “tube formation of HUVECs” value (HUVECs [4]) of the same compound?
A: significantly suppressed

Q: What about the IC50 (MAP4K4) of the same compound?
A: 0.079 µM

Q: And the T/C ([5]; 50 mg/kg p.o. QD)?
A: 29%

Q: And the TGI ([5]; 50 mg/kg p.o. QD)?
A: 78%

Q: What about the “Tumor volume at Day 21” value ([5]; 50 mg/kg p.o. QD) of the same compound?
A: 430 ± 42 mm^3

Q: What about the “area of CD31 (tumor micro-vessel density, IHC)” value (“area of CD31” below) ([5]; 50 mg/kg) of the same compound?
A: 2.20 ± 0.29

Q: And the T/C ([5]; 100 mg/kg p.o. QD)?
A: 27%

Q: And the TGI ([5]; 100 mg/kg p.o. QD)?
A: 80%

Q: What about the “Tumor volume at Day 21” value ([5]; 100 mg/kg p.o. QD) of the same compound?
A: 401 ± 38 mm^3

Q: What about the “area of CD31” value ([5]; 100 mg/kg) of the same compound?
A: 1.27 ± 0.48

Q: And the T/C ([6]; 50 mg/kg p.o. QD)?
A: 58%

Q: What about the TGI ([6]; 50 mg/kg p.o. QD) of the same compound?
A: 51%

Q: What about the “Tumor volume at Day 21” value ([6]; 50 mg/kg p.o. QD) of the same compound?
A: 704 ± 107 mm^3

Q: What about the “area of CD31” value ([6]; 50 mg/kg) of the same compound?
A: 1.96 ± 0.05

Q: And the T/C ([6]; 100 mg/kg p.o. QD)?
A: 36%

Q: What about the TGI ([6]; 100 mg/kg p.o. QD) of the same compound?
A: 72%

Q: What about the “Tumor volume at Day 21” value ([6]; 100 mg/kg p.o. QD) of the same compound?
A: 478 ± 85 mm^3

Q: What about the “area of CD31” value ([6]; 100 mg/kg) of the same compound?
A: 1.83 ± 0.26

Q: What about the IC50 (CDK2) of the same compound?
A: > 10 µM

Q: What about the IC50 (p38α) of the same compound?
A: > 3.33 µM

Q: And the “migration of HUVECs (wound healing)” value (HUVECs [7])?
A: appreciably inhibited

Q: And the “tumor angiogenesis and tumor size in zebrafish xenograft” value [8]?
A: few tumors exhibiting angiogenesis and small tumors

Q: And the “phosphorylation of PDGFRβ and ERK” value [9]?
A: significantly blocked

Q: What about the IC50 (MAPKAPK2) of the same compound?
A: > 10 µM

Q: What about the IC50 (CK1α) of the same compound?
A: > 10 µM

Q: What about the IC50 (GSK3β) of the same compound?
A: > 10 µM

Q: What about the IC50 (VEGFR3) of the same compound?
A: 0.0085 µM

From article PMC7488503 (Acta Pharmaceutica Sinica. B, 2020)
